Data published in patent US6855348B2, “Insecticidal composition derived from plants” (priority 2000, dated 2005).
Where “and” joins values, the source holds several entries; their conditions need not be identical. Equal values may be shown once. Read-outs that look alike come from different tables or passages of the source.

Assays:
Lasioderma serricorne = assay: Insecticidal activity test, treated filter paper in petri dish; assay type: in vivo; conditions: adults, 24 hours
Procedure: (§1) Stored-product pests used in the present invention were adult Lasioderma serricome Fab., adult Sitophilus oryzae L. and adult Callosobruchus chinensis L., and it was selected insects were not exposed to any insecticide. L. serricorne was bred in a beaker(10 cm diameter, 15 cm height) with wheat bran, S. oryzae was bred in a platic container(20×20×15 cm) with peanuts, and was bred in a plastic container(26×30×20 cm) with red beans. All insects were maintained at 28±1° C., 55±5% RH(relative humidity) and 16:8 hr(day:night) light condition.
(§2) Right after treatment, paper was transferred to hood and put in hood for about 2 minutes to completely evaporate solvent, and then, the above paper was put on paper treated with 20 adult pests in petri dish and this dish was covered with a lid. 24 hours after insecticide activity was investigated. To faacilitate handling of adult pests by their reducing activity, L. sericorne was put at −4° C. for 2 minutes, S. oryzae was used without this treatment, and C. chinensis was selected by using sucking tube. Healthy pests used in test were selected right before 6 hours of test. They were maintained at 28±1° C., 50-60% RH and 16:8 hr(day:night) light condition.
(§3) Insecticidal activity of salicylaldehyde against stored-product pests was investigated by the insecticidal test of Test 6. Test was repeated 25 times for adult S. oryzae, and 10 times for adult L. serricorne and adult C. chinensis. 10 adult pests were used for each test.

stored-product pests = assay: Insecticidal activity test, statements not resolved by pest species; assay type: in vivo; conditions: concentration of 1.25 mg
Procedure: as §1, §2

Dermatophagoides farinae = system: Dermatophagoides farinae
Procedure: (§4) American house dust mite (Dermatophagoides farinae) and European house dust mite (Dermatophagoide pteronyssinus) were maintained at 75±5% RH (relative humidity) at 25±1° C., and were provided a feed mixture of fish meal and multi-vitamins in a ratio of 1 to 1 on a 12.5×10.5×5 cm container.
(§5) The starting concentration is important for the primary screening of bioactive compounds from plant extracts and oils. […] 1 mg of the methanol extracts or oils were suspended with 40 μl of methanol and were transferred to a colorless microtube (2 ml). The microtube was vertically shaken several times to disperse the contents to the wall and cap of the microtube and it was placed in a freeze dryer for 1 hour in order to volatilize the solvent. Twenty-five mites were placed on the prepared microtube, and all treatment groups were transferred to an incubator kept at […]. Active mites only were selected with a fine brush under a microscope. Mortalities were determined with a microscope at 24 hours and 48 hours after treatment. […] All tests were replicated four or more times. The percentage mortality was determined and transformed to arcsine square-root values for analysis of variance (ANOVA). Treatment means were compared and separated by Scheffe's test at the P=0.05 (SAS Institute, 1996). Means (±standard error) of untransformed data are reported. Controls received 40 μl of methanol.

[1] = system: Dermatophagoides pteronyssinus
Procedure: as §4, §5

Sitophilus oryzae = assay: Insecticidal activity test, treated filter paper in petri dish; assay type: in vivo, Sitophilus oryzae L.; conditions: adults, 24 hours
Procedure: as §1, §2, §3

Callosobruchus chinensis = assay: as above; assay type: in vivo, Callosobruchus chinensis L.; conditions: adults, 24 hours
Procedure: as §1, §2, §3

O=Cc1ccccc1O [salicylaldehyde]
Mortality (Means ± standard error, %) (Lasioderma serricorne; 0.3125 mg/paper): 87% and 86.7 ± 3.3 b %
Mortality (Means ± standard error, %) (Lasioderma serricorne; 0.625 mg/paper): 100%
Mortality (Means ± standard error, %) (Lasioderma serricorne; 1.25 mg/paper): 100 a %
Mortality (Means ± standard error, %) (Lasioderma serricorne; 2.5 mg/paper): 100 a %
Mortality (Means ± standard error, %) (Lasioderma serricorne; 5 mg/paper): 100 a %
insecticidal activity against three species (stored-product pests): 100%
Mortality (Means ± standard error, %) (Dermatophagoides farinae; 0.125 mg/tube, 24 hr): 20.0 ± 1.6c %
Mortality (Means ± standard error, %) (Dermatophagoides farinae; 0.125 mg/tube, 48 hr): 27.0 ± 3.8c %
Mortality (Means ± standard error, %) (Dermatophagoides farinae; 0.2 mg/tube, 24 hr): 22.0 ± 1.2c %
Mortality (Means ± standard error, %) (Dermatophagoides farinae; 0.2 mg/tube, 48 hr): 28.0 ± 1.6c %
Mortality (Means ± standard error, %) (Dermatophagoides farinae; 0.25 mg/tube, 24 hr): 26.0 ± 2.0c %
Mortality (Means ± standard error, %) (Dermatophagoides farinae; 0.25 mg/tube, 48 hr): 34.02.6bc %
Mortality (Means ± standard error, %) (Dermatophagoides farinae; 0.3 mg/tube, 24 hr): 27.0 ± 1.9c %
Mortality (Means ± standard error, %) (Dermatophagoides farinae; 0.3 mg/tube, 48 hr): 37.0 ± 1.9bc %
Mortality (Means ± standard error, %) (Dermatophagoides farinae; 0.4 mg/tube, 24 hr): 44.0 ± 2.8b %
Mortality (Means ± standard error, %) (Dermatophagoides farinae; 0.4 mg/tube, 48 hr): 48.0 ± 2.8b %
Mortality (Means ± standard error, %) (Dermatophagoides farinae; 0.5 mg/tube, 24 hr): 99.0%
Mortality (Means ± standard error, %) (Dermatophagoides farinae; 0.5 mg/tube, 48 hr): 100a %
Mortality (Means ± standard error, %) (Dermatophagoides farinae; 1 mg/tube, 24 hr): 100a %
Mortality (Means ± standard error, %) (Dermatophagoides farinae; 1 mg/tube, 48 hr): 100a %
Mortality (Means ± standard error, %) ([1]; 0.125 mg/tube, 24 hr): 0e %
Mortality (Means ± standard error, %) ([1]; 0.125 mg/tube, 48 hr): 0e %
Mortality (Means ± standard error, %) ([1]; 0.2 mg/tube, 24 hr): 6.0 ± 1.1d %
Mortality (Means ± standard error, %) ([1]; 0.2 mg/tube, 48 hr): 9.0 ± 1.0d %
Mortality (Means ± standard error, %) ([1]; 0.25 mg/tube, 24 hr): 7.0 ± 3.0d %
Mortality (Means ± standard error, %) ([1]; 0.25 mg/tube, 48 hr): 8.0 ± 2.8d %
Mortality (Means ± standard error, %) ([1]; 0.3 mg/tube, 24 hr): 22.0 ± 2.6c %
Mortality (Means ± standard error, %) ([1]; 0.3 mg/tube, 48 hr): 27.0 ± 2.5c %
Mortality (Means ± standard error, %) ([1]; 0.4 mg/tube, 24 hr): 44.0 ± 2.8b %
Mortality (Means ± standard error, %) ([1]; 0.4 mg/tube, 48 hr): 46.0 ± 2.6b %
Mortality (Means ± standard error, %) ([1]; 0.5 mg/tube, 24 hr): 89.0%
Mortality (Means ± standard error, %) ([1]; 0.5 mg/tube, 48 hr): 92.0 ± 1.6a %
Mortality (Means ± standard error, %) ([1]; 1 mg/tube, 24 hr): 100a %
Mortality (Means ± standard error, %) ([1]; 1 mg/tube, 48 hr): 100a %
Mortality (Means ± standard error, %) (Sitophilus oryzae; 0.3125 mg/paper): 7.0 ± 2.1 b %
Mortality (Means ± standard error, %) (Sitophilus oryzae; 0.625 mg/paper): 97%
Mortality (Means ± standard error, %) (Sitophilus oryzae; 1.25 mg/paper): 100 a %
Mortality (Means ± standard error, %) (Sitophilus oryzae; 2.5 mg/paper): 100 a %
Mortality (Means ± standard error, %) (Sitophilus oryzae; 5 mg/paper): 100 a %
Mortality (Means ± standard error, %) (Callosobruchus chinensis; 0.15625 mg/paper): 68.0 ± 3.9 b %
Mortality (Means ± standard error, %) (Callosobruchus chinensis; 0.3125 mg/paper): 97%
Mortality (Means ± standard error, %) (Callosobruchus chinensis; 0.625 mg/paper): 100%
Mortality (Means ± standard error, %) (Callosobruchus chinensis; 1.25 mg/paper): 100 a %
Mortality (Means ± standard error, %) (Callosobruchus chinensis; 2.5 mg/paper): 100 a %
Mortality (Means ± standard error, %) (Callosobruchus chinensis; 5 mg/paper): 100 a %
